Here are results for two molecules from the supplement of paper PMC11061612.

Common to all, as to assay: Bliss excess, mean over the matrix (fraction); higher = more synergy
One assay has as its system AM-38 (Glioblastoma). The method, boiled down: (§1)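 Bliss excess equals the observed combination effect minus the expected value EA + EB − EA·EB, where EA and EB are the effects of each agent alone. Combination Emax is the second-highest inhibition within the matrix. Inhibition was scaled from CellTiter-Glo 2.0 luminescence, with 0 set by vehicle wells and 1 by blank wells, after 72 hours of two-drug dosing of cells plated in 1536-well plates.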

Assay [1] concerns BHT-101 (Thyroid Gland Carcinoma). The method in brief:
as §1

The test system of assay [2] is COR-L88 (Small Cell Lung Carcinoma). The method in brief:
as §1

The test system of assay [3] is DBTRG-05MG (Glioblastoma). The method in brief: as §1
Assay [4] relates to HT-1080 (Other Solid Carcinomas). The method, boiled down: as §1
Assay [5] concerns IA-LM (Non-Small Cell Lung Carcinoma). The method in brief:
as §1

In the next assay the test system is IST-MEL1 (Melanoma). The method in brief: as §1
For assay [6], the system named is MOLT-13 (T-Lymphoblastic Leukemia). The method, boiled down:
as §1

The test system of assay [7] is MONO-MAC-6 (Acute Myeloid Leukemia). The method in brief:
as §1

For assay [8], the system named is MS-1 (Small Cell Lung Carcinoma). The method in brief:
as §1

Assay [9] relates to NCI-H1341 (Small Cell Lung Carcinoma). The method in brief:
as §1

The subject of a further assay is NCI-H226 (Mesothelioma). The method, boiled down: as §1
Assay [10] deals with NMC-G1 (Low Grade Glioma). The method, boiled down: as §1
Assay [11] deals with Raji (Burkitt's Lymphoma). The method in brief:
as §1

Assay [12] relates to SAT (Head and Neck Carcinoma). The method in brief: as §1
Another assay relates to SK-N-SH (Neuroblastoma). The method in brief: as §1
Assay [13] concerns SNU-C2B (Colorectal Carcinoma). The method, boiled down:
as §1

Assay [14] has as its system SiHa (Cervical Carcinoma). The method, boiled down: as §1
Assay [15] relates to T84 (Colorectal Carcinoma). The method, boiled down: as §1
In assay [16] the test system is TUR (Acute Myeloid Leukemia). The method, boiled down: as §1

Consider `CC1(C)CCC(CN2CCN(c3ccc(C(=O)NS(=O)(=O)c4ccc(NCC5CCOCC5)c([N+](=O)[O-])c4)c(Oc4cnc5[nH]ccc5c4)c3)CC2)=C(c2ccc(Cl)cc2)C1` [Venetoclax] + Cc1cc2ncnn2cc1Nc1ncc2c(n1)n(C1CCOCC1)c(=O)n2C [AZD7648] (first compound max 1 µM, 7x7, partner max 10 µM), for which the Bliss excess in the assay with AM-38 (Glioblastoma) is -0.0098; in [1], -0.0011; in assay [2], -0.0121; in assay [3] it was -0.0224; in assay [4], -0.0487; in [5], 0.0086. Also, the Bliss excess with IST-MEL1 (Melanoma) is -0.0486; in assay [6] it was 0.063; in assay [7], -0.025; in assay [8], 0.0008; in assay [9] it was 0.0752; in the assay on NCI-H226 (Mesothelioma) it was -0.0552. The Bliss excess is -0.0508 in assay [10]; 0.0289 in assay [11]; -0.0171 in assay [12]; -0.0125 in the assay on SK-N-SH (Neuroblastoma); 0.0034 in [13]; -0.0549 in assay [14]. Moreover, the Bliss excess in assay [15] is -0.0267; in [16] it was -0.0016.
For `CC1(C)CCC(CN2CCN(c3ccc(C(=O)NS(=O)(=O)c4ccc(NCC5CCOCC5)c([N+](=O)[O-])c4)c(Oc4cnc5[nH]ccc5c4)c3)CC2)=C(c2ccc(Cl)cc2)C1` [Venetoclax] + Cn1cnc2c(F)c(Nc3ccc(Br)cc3Cl)c(C(=O)NOCCO)cc21 [Selumetinib] (first compound max 1 µM, 7x7, partner max 3 µM), the Bliss excess in the assay with AM-38 (Glioblastoma) was -0.108; in assay [1], -0.0959; in assay [2], 0.0341; in assay [3], 0.0064; in assay [4], -0.0351; in assay [5], -0.0248. For the same molecule, the Bliss excess in the assay with IST-MEL1 (Melanoma) was -0.0654; in [6] it was 0.241; in [7], -0.0192; in assay [8] it was -0.0273; in [9], 0.0847; in the assay on NCI-H226 (Mesothelioma), -0.0799. For the same molecule, the Bliss excess is -0.0531 in assay [10]; -0.003 in assay [11]; 0.0334 in assay [12]; 0.083 in the assay with SK-N-SH (Neuroblastoma); -0.0107 in [13]; -0.0516 in assay [14]. For the same molecule, the values for the Bliss excess in assay [15] and in assay [16] were -0.061 and -0.024, respectively.
